Reference: the supplement of paper PMC10331698
± gives the standard deviation of the averaged measurements.

Tests used:
Test in all cases: LOEC (log10 uM (lowest observed effect concentration))
[1] = compound: OCCC(F)(F)C(F)(F)C(F)(F)C(F)(F)C(F)(F)C(F)(F)C(F)(F)C(F)(F)F [8:2 Fluorotelomer alcohol]
Experimental: (§1)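 BioMAP Diversity Plus panel in human primary cell co-cultures, 4 concentrations in duplicate blinded samples. Responses are log10 fold change versus DMSO control, processed with tcpl v2.1.0. A hit is called when responses at any concentration exceed the cutoff (the larger of 3*bmad or log10(1.2)); the lowest observed effect concentration (modl_ga, log10 uM) is reported for hits.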

[2] = compound: C=CC(=O)OCC(F)(F)C(F)(F)C(F)(F)C(F)(F)COC(=O)C=C [1H,1H,6H,6H-Perfluorohexane-1,6-diol diacrylate]
Experimental: as §1

[3] = compound: FC(F)(I)C(F)(F)C(F)(F)C(F)(F)C(F)(F)C(F)(F)I [1,6-Diiodoperfluorohexane]
Experimental: as §1

[4] = compound: OCCCC(F)(F)C(F)(F)C(F)(F)C(F)(F)C(F)(F)C(F)(F)C(F)(F)C(F)(F)F [3-(Perfluorooctyl)propanol]
Experimental: as §1

[5] = compound: OC(C(F)(F)F)(C(F)(F)F)C(O)(C(F)(F)F)C(F)(F)F [Perfluoropinacol]
Experimental: as §1

[6] = compound: O=C(CC(=O)C(F)(F)C(F)(F)C(F)(F)F)c1cccs1 [(Perfluorobutyryl)-2-thenoylmethane]
Experimental: as §1

[7] = compound: OCC(F)(F)C(F)(F)C(F)(F)C(F)(F)C(F)(F)C(F)(F)C(F)(F)C(F)(F)CO [1H,1H,10H,10H-Perfluorodecane-1,10-diol]
Experimental: as §1

Test System | LOEC (log10 uM) [1] | LOEC (log10 uM) [2] | LOEC (log10 uM) [3] | LOEC (log10 uM) [4] | LOEC (log10 uM) [5] | LOEC (log10 uM) [6] | LOEC (log10 uM) [7]
CASM3C PAI1 down | 1.78 | 1.78 | 1.78 | 1.78 |  |  | 
hDFCGF MCP1 up |  |  |  |  | 1.3 |  | 
CASM3C TissueFactor up |  | 1.78 |  |  |  |  | 
BE3C IL1a down | 1.3 | 1.07 ± 0.32 | 1.78 | 1.78 | 1.3 | 1.3 | 
LPS SRB down | 1.3 | 1.3 | 1.78 | 1.3 | 1.3 | 1.3 | 
MyoF TIMP1 down | 1.3 | 1.3 | 1.3 | 1.3 |  |  | 
SAg Eselectin down | 1.54 ± 0.34 | 0.845 | 1.78 | 1.78 | 1.3 | 0.845 | 
CASM3C IL6 down |  |  | 1.54 ± 0.34 |  |  | 1.78 | 
LPS MCP1 down | 1.3 | 1.3 | 1.78 | 1.07 ± 0.32 | 1.3 | 1.3 | 
LPS PGE2 down |  | 1.3 |  |  |  |  | 
IMphg IL8 down |  |  | 1.78 |  |  |  | 1.78
BE3C SRB down | 1.3 |  | 1.78 | 1.78 | 1.78 | 1.78 | 
3C Thrombomodulin up |  |  | 1.54 ± 0.34 |  |  |  | 
BF4T IL1a down |  | 1.78 | 1.54 ± 0.34 | 1.78 |  | 1.78 | 
CASM3C SAA down | 1.78 | 1.3 | 1.3 | 1.78 |  | 1.78 | 
hDFCGF IL8 down | 1.3 | 1.3 | 0.845 | 1.3 |  |  | 1.78
BF4T IL8 down |  |  | 1.3 | 1.78 |  |  | 
BE3C Keratin818 down | 1.54 ± 0.34 |  | 1.78 | 1.78 |  | 1.3 | 
MyoF SRB down | 1.3 | 1.3 | 0.845 | 1.3 | 1.78 |  | 
CASM3C MIG down | 1.78 | 0.845 | 1.3 | 1.3 | 1.78 | 1.54 ± 0.34 | 
hDFCGF TIMP1 down | 1.3 | 0.845 | 1.07 ± 0.32 | 1.07 ± 0.32 |  |  | 1.78
CASM3C HLADR down | 1.3 | 1.54 ± 0.34 | 1.3 | 1.78 | 1.07 ± 0.32 | 1.78 | 
SAg MIG down | 1.78 | 1.3 | 1.78 | 1.78 | 1.78 | 1.78 | 
3C HLADR down | 1.3 | 1.3 | 1.54 ± 0.34 | 1.3 | 1.3 | 1.07 ± 0.32 | 
CASM3C TissueFactor down | 1.78 |  |  | 1.78 |  | 0.845 | 
hDFCGF EGFR down | 1.54 ± 0.34 |  |  | 0.845 | 1.54 ± 0.34 |  | 1.78

Test System | LOEC (log10 uM) [1] | LOEC (log10 uM) [2] | LOEC (log10 uM) [3] | LOEC (log10 uM) [4] | LOEC (log10 uM) [5] | LOEC (log10 uM) [6] | LOEC (log10 uM) [7]
3C Eselectin down |  | 1.3 | 1.54 ± 0.34 | 1.54 ± 0.34 | 1.54 ± 0.34 | 1.78 | 
3C ICAM1 down | 1.78 | 1.54 ± 0.34 | 1.78 | 1.3 |  | 1.78 | 
CASM3C Thrombomodulin up |  |  | 1.3 |  |  |  | 
BF4T MMP1 down |  |  | 1.78 | 1.78 |  | 1.54 ± 0.34 | 
3C uPAR down | 1.3 | 1.3 | 1.78 | 1.54 ± 0.34 | 0.845 | 0.845 | 
CASM3C MCSF down | 1.54 ± 0.34 | 1.07 ± 0.32 | 1.3 | 1.3 | 1.78 | 1.78 | 
hDFCGF ICAM1 down | 1.3 | 0.845 | 0.845 | 1.07 ± 0.32 |  |  | 1.78
MyoF IL8 down | 1.3 | 1.3 | 1.3 | 1.3 |  |  | 
BE3C MMP1 down |  |  |  |  |  | 1.78 | 
KF3CT IP10 down | 1.3 | 1.3 | 1.3 | 1.3 | 1.78 |  | 
4H SRB down | 1.3 | 1.3 | 1.54 ± 0.34 | 1.3 | 1.3 | 1.3 | 
BE3C tPA down | 1.3 | 1.54 ± 0.34 | 1.78 | 1.78 | 1.3 | 1.3 | 
KF3CT SRB down | 1.3 | 1.78 | 1.07 ± 0.32 | 1.3 | 1.78 |  | 1.78
4H MCP1 down |  | 1.78 | 1.54 ± 0.34 | 1.78 | 1.54 ± 0.34 | 1.3 | 
hDFCGF SRB up |  |  |  |  |  | 0.845 | 
BF4T uPA down | 1.78 | 1.78 | 1.54 ± 0.34 | 1.54 ± 0.34 |  | 1.54 ± 0.34 | 
CASM3C LDLR down | 1.78 |  | 1.54 ± 0.34 | 1.78 |  | 1.54 ± 0.34 | 
IMphg MCSF down | 1.78 | 1.54 ± 0.34 | 1.78 | 1.78 | 1.54 ± 0.34 |  | 1.78
LPS IL8 down | 1.54 ± 0.34 | 1.3 | 1.54 ± 0.34 | 0.845 |  |  | 
LPS TissueFactor up |  |  |  |  |  | 1.3 | 
LPS Eselectin down | 1.78 | 1.3 | 1.54 ± 0.34 | 0.845 | 1.78 |  | 
hDFCGF PAI1 down | 1.3 | 1.3 | 0.845 | 0.845 | 1.78 |  | 1.78
3C VCAM1 down | 1.3 | 1.3 | 1.54 ± 0.34 | 1.3 | 1.78 | 1.3 | 
hDFCGF CollagenI down | 1.78 |  |  |  |  | 1.3 | 
3C MCP1 down | 1.78 | 1.3 | 1.54 ± 0.34 | 1.3 | 1.78 | 1.3 | 
